In data set [1] the test system is ATCC43816. The data set is described as follows: Neutropenic thigh efficacy model. It counts as in vivo, mice. To be noted: for Ratio of thigh static doses: neutropenic thigh model, compound with A = —C(CH3)2NH2 versus paired compound with A = —C(CH3)2OH, ratio >1 means the —C(CH3)2NH2 compound had a lower static dose; for Ratio of thigh static dose normalized to MICs: ratio of neutropenic thigh static doses normalized to the MIC ratio on ATCC43816, —C(CH3)2NH2 compound versus paired —C(CH3)2OH compound. The procedure:
Mice were rendered neutropenic prior to infection with 2 doses of cyclophosphamide, and then infected intramuscularly in the thigh with 10^5-10^6 CFU of bacteria. See Gudmundsson S., Erlensdottir H., “Murine Thigh Infection Model” Handbook of Animal Models of Infection, M. A. Sande and O. Zak, Eds.; London: Academic Press, 1999, pp 137-144. Antibiotics or vehicle alone as a negative control were administered twice at 2 hrs and 14 hrs post-infection. At 24 hrs post-infection, thighs were harvested, homogenized, and plated to measure the number of CFUs surviving per thigh. Thighs from a subset of animals were also harvested 2 hrs post-infection to record the CFUs present just prior to the first antibiotic treatment (pre-treatment). The static dose, defined as the dose required to result in a CFU load at 24 hours that is identical to that measured at 0 hours post infection, was calculated by standard methods in Prizm from a dose response curve.
(§1) As shown in the following Table 3, three pairs of compounds were tested in the neutropenic thigh efficacy model. For each pair of compounds, the compounds were identical in structure except for the A moiety. More specifically, A is —C(CH3)2NH2 in one compound and A is —C(CH3)2OH in the other compound. […] In addition, the ratios of the MICs of each pair of compounds on the infecting strain (ATCC43816) was calculated.

Data set [2] relates to AECO063 (ATCC25922 bearing an acrAB mutation). Put plainly: microbe, parasite or virus in culture. The class given is cell-based, E. coli. The conditions noted are these: Escherichia coli, ATCC25922, read-out: MIC AECO063. The procedure, abridged:
(§2)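 Inocula prepared from 0.5 McFarland suspensions (final 3×10^5–7×10^5 CFU/mL) were added to 2-fold drug dilution series in cation-adjusted Mueller-Hinton broth. Plates stood 18-24 hours at 35° C. under ambient air.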

Data set [3] has as its system AABA1060 (clinical isolate of Acinetobacter baumannii). Put plainly: MIC broth microdilution, AABA1060. To be noted: Acinetobacter baumannii, read-out: MIC AABA1060. It counts as cell-based. The procedure, abridged:
as §2
In general terms: Dilution methods test growth across graded concentrations, often in twofold steps.

Data set [4] concerns APAE006 (strain of P. aeruginosa in which all efflux pumps are inactivated). Put plainly: microbe, parasite or virus in culture. It counts as cell-based. To be noted: Pseudomonas aeruginosa, read-out: MIC APAE006, APAE006, all efflux pumps inactivated. The procedure, abridged: (§3)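 Broth microdilution (CLSI); CA-MHB; 3×10^5–7×10^5 CFU/mL final; 2-fold dilutions; 35° C., ambient air, 18-24 h. APAE006 lacks all active efflux pumps.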

The test system of data set [5] is ATCC43816. The data set is described as follows: MIC broth microdilution, infecting strain ATCC43816. It counts as cell-based. To be noted: ratio >1 means the —C(CH3)2NH2 compound had a lower MIC than the paired —C(CH3)2OH compound. The procedure:
Minimum Inhibitory Concentrations (MICs) were determined by the broth microdilution method in accordance with the Clinical and Laboratory Standards Institute (CLSI) guidelines. In brief, organism suspensions were adjusted to a 0.5 McFarland standard to yield a final inoculum between 3×10^5 and 7×10^5 colony-forming units (CFU)/mL. Drug dilutions and inocula were made in sterile, cation adjusted Mueller-Hinton Broth (Beckton Dickinson). An inoculum volume of 100 μL was added to wells containing 100 μL of broth with 2-fold serial dilutions of drug. All inoculated microdilution trays were incubated in ambient air at 35° C. for 18-24 hours. Following incubation, the lowest concentration of the drug that prevented visible growth (OD600 nm<0.05) was recorded as the MIC. Performance of the assay was monitored by the use of laboratory quality-control strains and levofloxacin, a compound with a defined MIC spectrum, in accordance with CLSI guidelines. Typically, compounds of the present invention have MIC values of […].
as §1

For data set [6], the system named is ASAU001 (laboratory strain of S. aureus, ATCC29213). The data set is described as follows: MIC broth microdilution, ASAU001. The conditions noted are these: Staphylococcus aureus, ATCC29213, read-out: MIC ASAU001. The class given is cell-based. The gist of the method: as §2
The next data set deals with AECO001 (ATCC25922). Put plainly: MIC broth microdilution, AECO001. It counts as cell-based, E. coli. To be noted: for MIC: Escherichia coli; for Ratio of MICs on AECO001 [Cpd (A = —CHCH3NH2)/Cpd (A = —C(CH3)2NH2)]: MIC of paired compound with A = —CHCH3NH2 divided by MIC of compound with A = —C(CH3)2NH2, n=2 data, pairs identical except for the A moiety. The procedure, abridged:
as §2

Data set [7] has as its system APAE006 in the presence of 8 micrograms per milliliter of polymyxin B nonapeptide. It counts as cell-based, P. aeruginosa. The conditions noted are these: APAE006 with 8 micrograms per milliliter polymyxin B nonapeptide. The procedure, abridged: as §3
The test system of another data set is APAE001 (ATCC27853). The data set is described as follows: MIC broth microdilution, APAE001. The class given is cell-based, P. aeruginosa. The conditions noted are these: Pseudomonas aeruginosa, ATCC27853, read-out: MIC APAE001, APAE001 (ATCC27853). The gist of the method:
as §2

Setting [8] is: ATCC25922, read-out: MIC AECO001.
[9] abbreviates: ATCC25922, read-out: MIC AECO001 HSA AGP.

Experimental findings from patent publication US9617256B2 (priority 2007, dated 2017) are described below.

The structures appear in SMILES notation. Converted amounts (≈) assume the structure as drawn. Like-named read-outs stand apart in the source and are kept apart here.

As for `C[C@@H](O)[C@H](NC(=O)c1ccc(F)c(Br)c1)C(=O)NO`, the melting point lay within 152 to 153 °C.

As for `O=C(NO)[C@H]1[C@H](O)CCN1C(=O)c1ccc(OC(F)(F)F)cc1`, the melting point fell in the range of 64 to 65 °C.

`CC(C)(N)[C@H](NC(=O)c1ccc(C#CC#Cc2cccs2)cc1)C(=O)NO` [Example 88-13]: the “Ratio of thigh static doses” value in the data set with ATCC43816 [1] is given as greater than 7x. In the data set with ATCC43816 [1], the “Ratio of thigh static dose normalized to MICs” value is given as greater than 4.4x. Further, the MIC in data set [2] is less than 2 µg/mL; in [3], less than 2 µg/mL; in data set [4] it was less than 2 µg/mL; in data set [6], 2 to 16 µg/mL (≈ 5.24 to 41.9 µM); in the data set on AECO001 (ATCC25922) (setting [8]), less than 2 µg/mL; in the data set with AECO001 (ATCC25922) (setting [9]) it was less than 2 µg/mL. For the same compound, in the data set with APAE001 (ATCC27853), the MIC is less than 2 µg/mL. The “Ratio of MICs on ATCC43816 [Cpd (A = —CH(CH3)2OH/Cpd (A = —C(CH3)2NH2)])” value with ATCC43816 [5] came out at 1.6. Further, the “Ratio of MICs on AECO001 [Cpd (A = —CHCH3NH2)/Cpd (A = —C(CH3)2NH2)]” value (“Ratio of MICs on AECO001” below) in the data set on AECO001 (ATCC25922) came out at 4.1. In addition, in data set [7], the “MIC APAE006 + PMBN” value is given as “A (MIC's of 2.0 μg/mL or less = A)”.

With `CC(C)(N)[C@H](NC(=O)c1ccc(C#CC#CC2CC2)cc1)C(=O)NO` [Example 91-12], the “Ratio of thigh static doses” value in the data set on ATCC43816 [1] is recorded as greater than 3x. Moreover, the “Ratio of thigh static dose normalized to MICs” value in the data set on ATCC43816 [1] is recorded as greater than 3x. The MIC was less than 2 µg/mL in data set [2]; less than 2 µg/mL in [3]; less than 2 µg/mL in [4]; 2 to 16 µg/mL (≈ 5.89 to 47.1 µM) in data set [6]; less than 2 µg/mL with AECO001 (ATCC25922) (setting [8]); less than 2 µg/mL with AECO001 (ATCC25922) (setting [9]). For the same compound, the MIC in the data set with APAE001 (ATCC27853) was less than 2 µg/mL. The “Ratio of MICs on ATCC43816 [Cpd (A = —CH(CH3)2OH/Cpd (A = —C(CH3)2NH2)])” value with ATCC43816 [5] was found to be 1.0. In addition, the “Ratio of MICs on AECO001” value with AECO001 (ATCC25922) is listed as 5.6. In data set [7], the “MIC APAE006 + PMBN” value is given as “A (MIC's of 2.0 μg/mL or less = A)”.

For `CC(C)(N)[C@H](NC(=O)c1ccc(C#Cc2ccc(CN3CCCOCC3)cc2)cc1)C(=O)NO` [Example 122-5], in the data set on ATCC43816 [1], the “Ratio of thigh static doses” value is greater than 2x. The “Ratio of thigh static dose normalized to MICs” value with ATCC43816 [1] is greater than 4x. Also, the MIC is less than 2 µg/mL in data set [2]; less than 2 µg/mL in [3]; less than 2 µg/mL in data set [4]; 16 to 64 µg/mL (≈ 34.4 to 138 µM) in data set [6]; less than 2 µg/mL in the data set on AECO001 (ATCC25922) (setting [8]); less than 2 µg/mL with AECO001 (ATCC25922) (setting [9]). Further, the MIC in the data set on APAE001 (ATCC27853) is less than 2 µg/mL. Besides, the “Ratio of MICs on ATCC43816 [Cpd (A = —CH(CH3)2OH/Cpd (A = —C(CH3)2NH2)])” value in the data set with ATCC43816 [5] is 0.5. Besides, the “Ratio of MICs on AECO001” value in the data set on AECO001 (ATCC25922) came out at 2.4. The “MIC APAE006 + PMBN” value in data set [7] is “A (MIC's of 2.0 μg/mL or less = A)”.

By melting point is commonly meant the temperature, or range, at which the solid turns liquid.
